Measured values published in ChEMBL document CHEMBL1154068, “Synthesis and evaluation of A-seco type triterpenoids for anti-HIV-1protease activity” (Eur J Med Chem, 2009).

Key:
Protease = Protease (Human immunodeficiency virus 1, UniProt Q9YQ12); assay: Inhibition of HIV1 protease
Renin = target: T1, Renin (Homo sapiens, UniProt P00797); assay: Inhibition of renin by fluorimetric assay
T1 sequence (P00797 whole entry): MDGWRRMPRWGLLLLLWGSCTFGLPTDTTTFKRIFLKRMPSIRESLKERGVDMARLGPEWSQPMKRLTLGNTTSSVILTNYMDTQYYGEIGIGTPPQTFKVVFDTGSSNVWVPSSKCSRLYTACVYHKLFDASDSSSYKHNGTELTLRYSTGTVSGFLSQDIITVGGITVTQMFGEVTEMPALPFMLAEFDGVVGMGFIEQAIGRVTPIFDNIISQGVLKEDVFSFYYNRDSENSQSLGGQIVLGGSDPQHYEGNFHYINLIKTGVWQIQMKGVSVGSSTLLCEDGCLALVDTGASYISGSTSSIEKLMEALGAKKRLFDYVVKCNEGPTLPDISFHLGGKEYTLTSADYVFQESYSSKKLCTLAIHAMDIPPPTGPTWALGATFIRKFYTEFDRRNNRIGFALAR

[1] = Inhibition of trypsin by fluorimetric assay
[2] = Inhibition of HCV NS3/4A protease by fluorimetric assay; parameters: species or system Hepacivirus hominis

Sequence of Protease (Q9YQ12 whole entry): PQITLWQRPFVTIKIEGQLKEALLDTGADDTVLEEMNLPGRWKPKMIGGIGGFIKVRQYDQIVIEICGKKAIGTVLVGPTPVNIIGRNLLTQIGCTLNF

Row | Compound | IC50 (Protease) [µM] | IC50 (Renin) [µM] | IC50 [1] [µM] | IC50 [2] [µM]
1 | C[C@@H]1[C@H]2[C@H]3CC[C@@H]4[C@@]5(C)C=C(O)C(=O)C(C)(C)[C@@H]5CC[C@@]4(C)[C@]3(C)CC[C@@]2(C(=O)O)CC[C@H]1C | 25.4 | – | – | –
2 | C=C(C)[C@@H]1CC[C@@]2(C)[C@@H]1[C@@H]1CC[C@@H]3[C@@](C)(CC(=O)O)[C@H](C(C)(C)C(=O)O)CC[C@@]3(C)[C@]1(C)C[C@@H]2O | 10.9 | > 2050 | > 2050 | > 205
3 | C=C(C)[C@@H]1CC[C@]2(C(=O)O)CC[C@]3(C)[C@@H](CC[C@@H]4[C@@](C)(CC(=O)O)[C@H](C(C)(C)C(=O)O)CC[C@]43C)[C@H]12 | 15.7 | > 1990 | 856 | > 199
4 | CC1(C)C(=O)CC[C@]2(C)[C@H]3C(=O)C=C4[C@H]5C[C@@](C)(C(=O)O)CC[C@]5(C)CC[C@@]4(C)[C@]3(C)CC[C@@H]12 | 23.6 | – | – | –
5 | CC1(C)CC[C@]2(C(=O)O)CC[C@]3(C)[C@H](CC[C@@H]4[C@@]5(C)C=C(O)C(=O)C(C)(C)[C@@H]5CC[C@]43C)[C@H]2C1 | 19.2 | – | – | –
6 | CC1(C)CC[C@]2(C(=O)O)CC[C@]3(C)C(=CC[C@@H]4[C@@](C)(CC(=O)O)[C@H](C(C)(C)C(=O)O)CC[C@]43C)[C@H]2C1 | 3.9 | > 1990 | > 1990 | > 199
7 | CC1(C)C(=O)C(O)=C[C@]2(C)[C@H]3C(=O)C[C@@H]4[C@H]5C[C@@](C)(C(=O)O)CC[C@]5(C)CC[C@@]4(C)[C@]3(C)CC[C@@H]12 | 15.8 | – | – | –
8 | C=C(C)[C@@H]1CC[C@]2(C(=O)O)CC[C@]3(C)[C@@H](CC[C@@H]4[C@@]5(C)C=C(O)C(=O)C(C)(C)[C@@H]5CC[C@]43C)[C@H]12 | 18.8 | – | – | –
9 | CC(C)(C(=O)O)[C@@H]1CC[C@]2(C)[C@H](C(=O)C=C3[C@H]4C[C@@](C)(C(=O)O)CC[C@]4(C)CC[C@]32C)[C@@]1(C)CC(=O)O | 5.7 | > 1930 | > 1940 | > 194
10 | CC1(C)CC[C@]2(C(=O)O)CC[C@]3(C)C(=CC[C@@H]4[C@@]5(C)CCC(=O)C(C)(C)[C@@H]5CC[C@]43C)[C@H]2C1 | 27.4 | – | – | –
11 | CC1(C)CC[C@]2(CO)CC[C@]3(C)C(=CC[C@@H]4[C@@](C)(CC(=O)O)[C@H](C(C)(C)C(=O)O)CC[C@]43C)[C@H]2C1 | 30.4 | – | – | –
12 | CC(C)[C@@H](NC(=O)[C@]12CCC(C)(C)C[C@@H]1C1=CC[C@@H]3[C@@]4(C)CC[C@H](O)C(C)(C)[C@@H]4CC[C@@]3(C)[C@]1(C)CC2)C(=O)O | 47.3 | – | – | –
13 | C[C@H]1[C@H](C)CC[C@]2(C(=O)O)CC[C@]3(C)C(=CC[C@@H]4[C@@](C)(CC(=O)O)[C@H](C(C)(C)C(=O)O)CC[C@]43C)[C@H]12 | 17.6 | > 1990 | > 1990 | > 199
14 | C=C(C)[C@@H]1CC[C@]2(C)CC[C@]3(C)[C@@H](CC[C@@H]4[C@@]5(C)CCC(=O)C(C)(C)[C@@H]5CC[C@]43C)[C@H]12 | > 236 | – | – | –
15 | CC(C)[C@H](NC(=O)[C@]12CCC(C)(C)C[C@@H]1C1=CC[C@@H]3[C@@]4(C)CCC(=O)C(C)(C)[C@@H]4CC[C@@]3(C)[C@]1(C)CC2)C(=O)O | 14.6 | – | – | –
16 | CC(C)[C@@H](NC(=O)[C@]12CCC(C)(C)C[C@@H]1C1=CC[C@@H]3[C@@](C)(CC(=O)O)[C@H](C(C)(C)C(=O)O)CC[C@@]3(C)[C@]1(C)CC2)C(=O)O | 88.1 | > 1660 | > 1660 | > 166

Row | Compound | IC50 (Protease) [µM] | IC50 (Renin) [µM] | IC50 [1] [µM] | IC50 [2] [µM]
17 | COC(=O)[C@@H](NC(=O)[C@]12CCC(C)(C)C[C@@H]1C1=CC[C@@H]3[C@@]4(C)CC[C@H](O)C(C)(C)[C@@H]4CC[C@@]3(C)[C@]1(C)CC2)C(C)C | 24.6 | – | – | –
18 | COC(=O)[C@@H](NC(=O)[C@]12CCC(C)(C)C[C@@H]1C1=CC[C@@H]3[C@@]4(C)CC[C@H](OC(C)=O)C(C)(C)[C@@H]4CC[C@@]3(C)[C@]1(C)CC2)C(C)C | 21.3 | – | – | –
19 | COC(=O)[C@H](NC(=O)[C@]12CCC(C)(C)C[C@@H]1C1=CC[C@@H]3[C@@]4(C)CCC(=O)C(C)(C)[C@@H]4CC[C@@]3(C)[C@]1(C)CC2)C(C)C | 41.4 | – | – | –
20 | COC(=O)[C@@H](NC(=O)[C@]12CCC(C)(C)C[C@@H]1C1=CC[C@@H]3[C@@]4(C)CCC(=O)C(C)(C)[C@@H]4CC[C@@]3(C)[C@]1(C)CC2)C(C)C | 37 | – | – | –
21 | CC(C)[C@@H](NC(=O)[C@]12CCC(C)(C)C[C@@H]1C1=CC[C@@H]3[C@@]4(C)CCC(=O)C(C)(C)[C@@H]4CC[C@@]3(C)[C@]1(C)CC2)C(=O)O | 45.2 | – | – | –
22 | CC(C)[C@H](NC(=O)[C@]12CCC(C)(C)C[C@@H]1C1=CC[C@@H]3[C@@]4(C)CC[C@H](O)C(C)(C)[C@@H]4CC[C@@]3(C)[C@]1(C)CC2)C(=O)O | 10.6 | – | – | –
23 | COC(=O)[C@H](NC(=O)[C@]12CCC(C)(C)C[C@@H]1C1=CC[C@@H]3[C@@]4(C)CC[C@H](O)C(C)(C)[C@@H]4CC[C@@]3(C)[C@]1(C)CC2)C(C)C | 32.3 | – | – | –
24 | CC(C)[C@@H](NC(=O)[C@]12CCC(C)(C)C[C@@H]1[C@H]1CC[C@@H]3[C@@]4(C)C=C(O)C(=O)C(C)(C)[C@@H]4CC[C@@]3(C)[C@]1(C)CC2)C(=O)O | 49.7 | – | – | –
25 | CC(C)[C@H](NC(=O)[C@]12CCC(C)(C)C[C@@H]1[C@H]1CC[C@@H]3[C@@]4(C)C=C(O)C(=O)C(C)(C)[C@@H]4CC[C@@]3(C)[C@]1(C)CC2)C(=O)O | 40.5 | – | – | –
26 | C=C(C)[C@@H]1CC[C@]2(C)CC[C@]3(C)[C@@H](CC[C@@H]4[C@@]5(C)C=C(O)C(=O)C(C)(C)[C@@H]5CC[C@]43C)[C@H]12 | 24.6 | – | – | –
27 | CC1(C)CC[C@]2(C(=O)O)CC[C@]3(C)C(=CC[C@@H]4[C@@]5(C)CC(=O)C(C)(C)[C@@H]5CC[C@]43C)[C@H]2C1 | 28.6 | – | – | –
28 | C=C(C)[C@@H]1CC[C@]2(C=O)CC[C@]3(C)[C@@H](CC[C@@H]4[C@@]5(C)CCC(=O)C(C)(C)[C@@H]5CC[C@]43C)[C@H]12 | 31.9 | – | – | –
29 | C=C(C)[C@@H]1CC[C@]2(C)CC[C@]3(C)[C@@H](CC[C@@H]4[C@@](C)(CC(=O)O)[C@H](C(C)(C)C(=O)O)CC[C@]43C)[C@H]12 | 25.4 | > 2120 | > 2120 | 80.3
30 | CC(=O)O[C@H]1CC[C@]2(C)[C@H]3CC=C4[C@@H]5CC(C)(C)CC[C@]5(C(=O)O)CC[C@@]4(C)[C@]3(C)CC[C@H]2C1(C)C [ACETYL OLEANOLIC ACID] | > 201 | – | – | –
31 | C[C@H]1[C@H](C)CC[C@]2(C(=O)O)CC[C@]3(C)C(=CC[C@@H]4[C@@]5(C)CCC(=O)C(C)(C)[C@@H]5CC[C@]43C)[C@H]12 [URSONIC ACID] | 37.5 | – | – | –
